Test results: patent US4446129A, “Method for treatment of arthrosis deformans with elastase” (Eisai Co., Ltd., priority 1982, dated 1984)
“And” between values parts separate entries of the source, which are not always exact repeats. Identical values can stand only once. “Also recorded” adds a separate entry of the source.

How the values were obtained:
elastase = conditions: cited from earlier work
[1] = porcine elastase; cited from earlier work
[2] = tested on: Wistar strain female and male rats; test: Subacute toxicity, rats; assay type: in vivo, rat; conditions: oral, 750, 7,500 and 37,500 or 75,000 EL. U/kg/day for 4 weeks
Source text: (§1) Elastase was orally administered to Wistar strain female and male rats at dosages of 750, 7,500 and 37,500 or 75,000 EL. U/kg/day for 4 weeks, and to female and male beagle dogs at dosages of 900 or 4,500 EL. U/kg/day for 12 weeks.

[3] = Absorption, blood concentration and fate of elastase after oral administration; assay type: in vivo
[4] = tested on: lipid metabolism in the serum and tissues; arterial walls; conditions: cited from earlier work
lipoprotein = conditions: cited from earlier work
gonarthralgia = test: Clinical examples: effectiveness against gonarthralgia; assay type: in vivo, human
Source text: (§2) The subjects included 18 patients (men 6 cases, women 12 cases, ages 57 to 88, average 70.9±8.2 years old) that were diagnosed negative as to rheumatoid arthrosis and were clinically diagnosed as suffering from gonarthrosis deformans. […] The distribution of the duration of gonarthralgia in the patients from the onset thereof was such that six cases fell into each of the periods of (1) three years or shorter, (2) four to five years, and (3) five years or longer.
(§3) The effectiveness of elastase against gonarthrosis deformans was evaluated by administering capsules containing 1,800 EL.U elastase at a daily dosage of 3 capsules per day to each patient for 8 weeks, and investigating the severity of gonarthralgia before administration, 4 weeks after administration, and 8 weeks after administration.
(§4) However, these patients had received and continued to receive during the test period antihypertensive agents, agents for improving cerebral circulation and other drugs for the treatment of their underlying diseases. However, the levels of these drugs in the patients' bodies remained unchanged from the day 8 weeks before the start of the test up to the last day of the test. During the tests, no patient received any other antiinflammatory, analgesic or steroid having the possible effect of palliation of arthralgia.

human patients = test: Clinical examples: side effects; assay type: in vivo; conditions: for resolution of epigastric discomfort: after 4 weeks
Source text: as §2, §3, §4

[5] = tested on: other types of arthralgia; test: Clinical examples: effectiveness against other types of arthralgia and symptoms; assay type: in vivo, human
Source text: as §2, §3, §4

[6] = tested on: female and male beagle dogs; test: Subacute toxicity, dogs; assay type: in vivo, dog; conditions: oral, 900 or 4,500 EL. U/kg/day for 12 weeks
Source text: as §1

[7] = tested on: Wistar strain female and male rats; test: Chronic toxicity, rats; assay type: in vivo, rat; conditions: oral, 2,250, 5,700, 11,250 or 22,500 EL. U/kg/day for 24 weeks
Source text: Elastase was orally administered to Wistar strain female and male rats at dosages of 2,250, 5,700, 11,250 or 22,500 EL. U/kg/day for 24 weeks.

pregnant mice = test: Teratogenicity, mice; assay type: in vivo, mouse; conditions: oral, 750, 7,500 or 75,000 EL. U/kg/day, 6 days
Source text: (§5) Elastase was forcibly orally administered to pregnant mice and rats in the stage of organogenesis at dosages of 750, 7,500 or 75,000 EL. U/kg/day for 6 consecutive days. As a result, death, hindrance to growth and teratogenesis of the embryos were not observed, and there was no effect upon the morphological and functional differentiation of the newborn animals.

pregnant rats = test: Teratogenicity, rats; assay type: in vivo, rat; conditions: oral, 750, 7,500 or 75,000 EL. U/kg/day, 6 days
Source text: as §5

[8] = duration 3 years or shorter, 4 w
[9] = duration 3 years or shorter, 8 w
[10] = duration 5 years or longer, 4 w
[11] = duration 5 years or longer, 8 w
[12] = individual patient case (one line per case No. 1-18), 3 capsules of 1,800 EL.U per day
[13] = individual patient case (Table 2)

Compound: O=S(=O)([O-])[O-].[Cu+2] [CuSO4]
- inhibition of elastase activity (elastase): inhibited

Compound: elastase: enzyme which specifically decomposes elastin, a water-insoluble scleroprotein; industrially produced by extraction from swine pancreas
- isoelectric point [1]: 9.5±0.5 pH
- Subacute toxicity: general physical condition, blood and urinary tests, morphological observations [2]: no noteworthy anomalous findings
- optimal activation pH, particularly (elastase; N-α-benzoyl-L-alanine methyl ester as substrate): about 8.8
- optimal activation pH (elastase; N-α-benzoyl-L-alanine methyl ester as substrate, range): 8 to 10
- decomposition of N-α-benzoyl-L-alanine methyl ester, acetyl-L-trialanine-p-nitroanilide and elastin (elastase; porcine elastase): specifically decomposing
- time of maximum concentration of elastase in the blood ([3]; after (oral) administration): 6 h
- combination with blood proteins ([3]; in the blood): combines with α2 -macroglobulin and α1 -antitrypsin
- area under the blood concentration curve versus dosage ([3]; oral): increases in proportion to the dosage
- distribution ([3]; oral): distributed widely over all of the body tissues
- excretion ([3]; oral): excreted into the urine
- metabolism ([3]; oral): metabolized chiefly in the liver
- removal of denatured elastin, formation of fresh elastin, fat deposition, atherosclerosis ([4]; arterial walls): functions to remove denatured elastin from arterial walls and to promote formation of fresh elastin
- effect on disturbance of lipid metabolism in the serum and tissues ([4]; in vivo): normalizing effect
- elasticity and dilatability of arterial walls ([4]; in vivo): maintains and promotes
- β-lipoproteinase activity and lipoprotein lipase activity (lipoprotein): confirmed
- "ineffective" result, number (gonarthralgia; 4 to 5 year group): one
- "ineffective" result, number (gonarthralgia; 5 years or longer group): one
- result (case history) (gonarthralgia; Case 4, Case 8, Case 16, Case 13): markedly effective; also recorded: ineffective (when there was no effect)
- pain in knee joints when administration was discontinued (gonarthralgia; Case 9): worsened
- gonarthralgia after restart of administration (gonarthralgia; Case 9, restarted at beginning of third week): palliation of gonarthralgia
- improvement, case history (gonarthralgia; Case 13, after either 4 weeks or 8 weeks): no improvement was recognized
- difficulty with Japanese dancing, case history (gonarthralgia; Case 16, after 4 weeks): disappeared
- knee pain, case history (gonarthralgia; after 4 weeks, Case 4, Case 8, Case 16): completely cleared up; also recorded: disappeared entirely
- gonarthralgia in cases with other symptoms (gonarthralgia; all of these cases): palliated or cleared up
- aggravated, number of cases (gonarthralgia; [8]): 0
- effective, number of cases (gonarthralgia; [8]): 3
- ineffective, number of cases (gonarthralgia; [8]): 0
- markedly effective, number of cases (gonarthralgia; [8]): 3
- rate of effectiveness (gonarthralgia; [8]): 100%
- rate of effectiveness (cases/total) (gonarthralgia; [8]): 6/6
- aggravated, number of cases (gonarthralgia; [9]): 0
- effective, number of cases (gonarthralgia; [9]): 3
- ineffective, number of cases (gonarthralgia; [9]): 0
- markedly effective, number of cases (gonarthralgia; [9]): 3
- rate of effectiveness (gonarthralgia; [9]): 100%
- rate of effectiveness (cases/total) (gonarthralgia; [9]): 6/6
- aggravated, number of cases (gonarthralgia; duration 4 to 5 years, 4 w): 0
- effective, number of cases (gonarthralgia; duration 4 to 5 years, 4 w): 3
- ineffective, number of cases (gonarthralgia; duration 4 to 5 years, 4 w): 1
- markedly effective, number of cases (gonarthralgia; duration 4 to 5 years, 4 w): 2
- rate of effectiveness (gonarthralgia; duration 4 to 5 years, 4 w): 83.3%
- rate of effectiveness (cases/total) (gonarthralgia; duration 4 to 5 years, 4 w): 5/6
- aggravated, number of cases (gonarthralgia; duration 4 to 5 years, 8 w): 0
- effective, number of cases (gonarthralgia; duration 4 to 5 years, 8 w): 2
- ineffective, number of cases (gonarthralgia; duration 4 to 5 years, 8 w): 1
- markedly effective, number of cases (gonarthralgia; duration 4 to 5 years, 8 w): 3
- rate of effectiveness (gonarthralgia; duration 4 to 5 years, 8 w): 83.3%
- rate of effectiveness (cases/total) (gonarthralgia; duration 4 to 5 years, 8 w): 5/6
- aggravated, number of cases (gonarthralgia; [10]): 0
- effective, number of cases (gonarthralgia; [10]): 4
- ineffective, number of cases (gonarthralgia; [10]): 1
- markedly effective, number of cases (gonarthralgia; [10]): 1
- rate of effectiveness (gonarthralgia; [10]): 83.3%
- rate of effectiveness (cases/total) (gonarthralgia; [10]): 5/6
- aggravated, number of cases (gonarthralgia; [11]): 0
- effective, number of cases (gonarthralgia; [11]): 3
- ineffective, number of cases (gonarthralgia; [11]): 1
- markedly effective, number of cases (gonarthralgia; [11]): 2
- rate of effectiveness (gonarthralgia; [11]): 83.3%
- rate of effectiveness (cases/total) (gonarthralgia; [11]): 5/6
- cases with gonarthralgia completely cleared up, number (gonarthralgia; duration greater than 5 years): two
- overall rate of improvement (gonarthralgia; entire group of 18 patients): 88.9%
- patients with distinct palliation or complete clearing of gonarthralgia, number (gonarthralgia; entire group of patients): sixteen
- results of "aggravated" (gonarthralgia; entire group of patients): no results of "aggravated"
- results of "ineffective", number (gonarthralgia; entire group of patients): two
- Effect on arthralgia after 4 w. (gonarthralgia; [12]): + (effective) and ++ and - (ineffective)
- Effect on arthralgia after 8 w. (gonarthralgia; [12]): + (effective) and ++ and - (ineffective)
- persistent gonarthralgia (gonarthralgia; most of the patients, during term of administration, not informed of relation): considerably palliated or completely cleared up
- results of "markedly effective", 8 weeks compared with 4 weeks (gonarthralgia; overall): somewhat higher after the 8 week period
- rate of effectiveness (gonarthralgia; overall, 4 w): 88.9%
- rate of effectiveness (cases/total) (gonarthralgia; overall, 4 w): 16/18
- effective, number of cases (gonarthralgia; overall, 4 w, 18 cases): 10
- markedly effective, number of cases (gonarthralgia; overall, 4 w, 18 cases): 6
- rate of effectiveness (cases/total) (gonarthralgia; overall, 8 w): 16/18
- rate of effectiveness / overall rate of improvement (gonarthralgia; overall, 8 w): 88.9%
- rate of "effective" (gonarthralgia; overall, after 4 weeks): 55.6%
- rate of "ineffective" (gonarthralgia; overall, after 4 weeks): 11.1%
- rate of "markedly effective" (gonarthralgia; overall, after 4 weeks): 33.3%
- rate of "aggravated" (gonarthralgia; overall, after 8 weeks): 0%
- rate of "effective" (gonarthralgia; overall, after 8 weeks): 44.4% and 44.48%
- rate of "ineffective" (gonarthralgia; overall, after 8 weeks): 11.1%
- rate of "markedly effective" (gonarthralgia; overall, after 8 weeks): 44.4% and 44.48%
- onset of perceived palliation or clearing of arthralgia (gonarthralgia; patients who showed improvement, after start of administration): at the beginning of the second week
- discontinuation of administration in cases with epigastric discomfort (human patients; 3 cases (conclusions)): not discontinued in any of these cases
- epigastric discomfort, number of cases (human patients; 18 patients, 8 weeks): 3
- epigastric discomfort, rate (human patients; 18 patients, 8 weeks): 16.7%
- Miscellaneous: discontinuation and restart (human patients; Case 9 (Table 2)): administration discontinued after 2 w; also recorded: restarted because of worsened arthralgia
- resolution of epigastric discomfort (human patients; Case 9, administration restarted): cleared up after 4 weeks
- discontinuation of administration because of epigastric discomfort (human patients; Case 9, at the beginning of the second week): discontinued at the beginning of the second week
- epigastric discomfort (human patients; Cases 3, 6 and 9, one to two weeks after administration began): suffered from epigastric discomfort for several days
- resolution of epigastric discomfort (human patients; Cases 3 and 6): disappeared after 4 weeks
- nausea, vomiting, exanthema or the like (human patients; all cases): In none of the cases
- Side effect (transient epigastric discomfort) (human patients; [13]): transient
- morning stiffness in the fingers ([5]; Case 4, after 4 weeks): cleared up
- lumbago ([5]; Case 5, during the term of administration): cleared up
- cinesalgia in the left shoulder (periarthritis) ([5]; Case 6, during the term of administration): No change
- anomalies of sensation in fingers ([5]; Cases 10 and 15): not cleared up
- Miscellaneous [5, 13]: morning stiffness in hands cleared; also recorded: carpal tunnel syndrome not changed; also recorded: dancing eliminated
- Miscellaneous: lumbago [5, 13]: cleared; also recorded: lumbago lasting
- Subacute toxicity: general physical condition, blood and urinary tests, morphological observations [6]: no noteworthy anomalous findings
- Chronic toxicity: general physical condition, blood and urinary tests, morphological observations [7]: no anomalous findings
- effect upon morphological and functional differentiation of the newborn animals (pregnant mice): no effect
- death, hindrance to growth and teratogenesis of the embryos (pregnant mice; organogenesis): not observed
- effect upon morphological and functional differentiation of the newborn animals (pregnant rats): no effect
- death, hindrance to growth and teratogenesis of the embryos (pregnant rats; organogenesis): not observed

Compound: [Cl-].[Na+] [NaCl]
- inhibition of elastase activity (elastase): inhibited

Compound: N.N.O=S(=O)(O)O [(NH4)2 SO4]
- inhibition of elastase activity (elastase): inhibited

Compound: [Cl-].[K+] [KCl]
- inhibition of elastase activity (elastase): inhibited
